How the values were obtained:
Type in all cases: cell-based
SK-MEL-28 = assay: NCI60 growth inhibition, SK-MEL-28; conditions: Melanoma
Protocol: (§1) Representative compounds were tested in 60 cell lines (NCI60) at the National Cancer Institute, Developmental Therapeutics Program.
(§2) Representative compounds were tested in a panel of 60 cancer cells (NCI 60) at the National Cancer Institute. Growth inhibition are shown in table 2, table 3, table 4, table 5, and FIG. 1, FIG. 2, FIG. 3, FIG. 4, FIG. 5.

OVCAR-3 = assay: NCI60 growth inhibition, OVCAR-3; conditions: Ovarian Cancer
Protocol: as §1, §2

LOX IMVI = assay: NCI60 growth inhibition, LOX IMVI; conditions: Melanoma
Protocol: as §1, §2

CCRF-CEM = assay: NCI60 growth inhibition, CCRF-CEM; conditions: Leukemia
Protocol: as §1, §2

OVCAR-5 = assay: NCI60 growth inhibition, OVCAR-5; conditions: Ovarian Cancer
Protocol: as §1, §2

DU-145 = assay: NCI60 growth inhibition, DU-145; conditions: Prostate Cancer
Protocol: as §1, §2

HCT-15 = assay: NCI60 growth inhibition, HCT-15; conditions: Colon Cancer; also: test concentration or dose not given here
Protocol: as §1, §2

SK-MEL-5 = assay: NCI60 growth inhibition, SK-MEL-5; conditions: Melanoma
Protocol: as §1, §2

PC-3 = assay: NCI60 growth inhibition, PC-3; conditions: Prostate Cancer
Protocol: as §1, §2

MDA-MB-435 = assay: NCI60 growth inhibition, MDA-MB-435; conditions: Melanoma
Protocol: as §1, §2

UACC-62 = assay: NCI60 growth inhibition, UACC-62; conditions: Melanoma; also: test concentration or dose not given here
Protocol: as §1, §2

SK-MEL-2 = assay: NCI60 growth inhibition, SK-MEL-2; conditions: Melanoma; also: test concentration or dose not given here
Protocol: as §1, §2

IGROV1 = assay: NCI60 growth inhibition, IGROV1; conditions: Ovarian Cancer
Protocol: as §1, §2

RXF 393 = assay: NCI60 growth inhibition, RXF 393; conditions: Renal Cancer
Protocol: as §1, §2

MDA-MB-468 = assay: NCI60 growth inhibition, MDA-MB-468; conditions: Breast Cancer; also: test concentration or dose not given here
Protocol: as §1, §2

SNB-19 = assay: NCI60 growth inhibition, SNB-19; conditions: CNS Cancer; also: test concentration or dose not given here
Protocol: as §1, §2

RPMI-8226 = assay: NCI60 growth inhibition, RPMI-8226; conditions: Leukemia
Protocol: as §1, §2

K-562 = assay: NCI60 growth inhibition, K-562; conditions: Leukemia
Protocol: as §1, §2

SF-539 = assay: NCI60 growth inhibition, SF-539; conditions: CNS Cancer
Protocol: as §1, §2

CAKI-1 = assay: NCI60 growth inhibition, CAKI-1; conditions: Renal Cancer; also: test concentration or dose not given here
Protocol: as §1, §2

HOP-62 = assay: NCI60 growth inhibition, HOP-62; conditions: Non-Small Cell Lung Cancer; also: test concentration or dose not given here
Protocol: as §1, §2

KM12 = assay: NCI60 growth inhibition, KM12; conditions: Colon Cancer; also: test concentration or dose not given here
Protocol: as §1, §2

SNB-75 = assay: NCI60 growth inhibition, SNB-75; conditions: CNS Cancer; also: test concentration or dose not given here
Protocol: as §1, §2

HCT-116 = assay: NCI60 growth inhibition, HCT-116; conditions: Colon Cancer
Protocol: as §1, §2

T-47D = assay: NCI60 growth inhibition, T-47D; conditions: Breast Cancer
Protocol: as §1, §2

A498 = assay: NCI60 growth inhibition, A498; conditions: Renal Cancer; also: test concentration or dose not given here
Protocol: as §1, §2

A549/ATCC = assay: NCI60 growth inhibition, A549/ATCC; conditions: Non-Small Cell Lung Cancer
Protocol: as §1, §2

EKVX = assay: NCI60 growth inhibition, EKVX; conditions: Non-Small Cell Lung Cancer
Protocol: as §1, §2

HCC-2998 = assay: NCI60 growth inhibition, HCC-2998; conditions: Colon Cancer
Protocol: as §1, §2

NCI-H460 = assay: NCI60 growth inhibition, NCI-H460; conditions: Non-Small Cell Lung Cancer
Protocol: as §1, §2

HS 578T = assay: NCI60 growth inhibition, HS 578T; conditions: Breast Cancer
Protocol: as §1, §2

786-0 = assay: NCI60 growth inhibition, 786-0; conditions: Renal Cancer
Protocol: as §1, §2

NCI-H23 = assay: NCI60 growth inhibition, NCI-H23; conditions: Non-Small Cell Lung Cancer
Protocol: as §1, §2

SF-295 = assay: NCI60 growth inhibition, SF-295; conditions: CNS Cancer; also: test concentration or dose not given here
Protocol: as §1, §2

U251 = assay: NCI60 growth inhibition, U251; conditions: CNS Cancer
Protocol: as §1, §2

NCI-H226 = assay: NCI60 growth inhibition, NCI-H226; conditions: Non-Small Cell Lung Cancer; also: test concentration or dose not given here
Protocol: as §1, §2

HL-60(TB) = assay: NCI60 growth inhibition, HL-60(TB); conditions: Leukemia
Protocol: as §1, §2

NCI-H522 = assay: NCI60 growth inhibition, NCI-H522; conditions: Non-Small Cell Lung Cancer
Protocol: as §1, §2

NCI/ADR-RES = assay: NCI60 growth inhibition, NCI/ADR-RES; conditions: Ovarian Cancer
Protocol: as §1, §2

MALME-3M = assay: NCI60 growth inhibition, MALME-3M; conditions: Melanoma
Protocol: as §1, §2

SN12C = assay: NCI60 growth inhibition, SN12C; conditions: Renal Cancer
Protocol: as §1, §2

NCI-H322M = assay: NCI60 growth inhibition, NCI-H322M; conditions: Non-Small Cell Lung Cancer
Protocol: as §1, §2

UO-31 = assay: NCI60 growth inhibition, UO-31; conditions: Renal Cancer
Protocol: as §1, §2

SK-OV-3 = assay: NCI60 growth inhibition, SK-OV-3; conditions: Ovarian Cancer
Protocol: as §1, §2

TK-10 = assay: NCI60 growth inhibition, TK-10; conditions: Renal Cancer
Protocol: as §1, §2

MOLT-4 = assay: NCI60 growth inhibition, MOLT-4; conditions: Leukemia
Protocol: as §1, §2

M14 = assay: NCI60 growth inhibition, M14; conditions: Melanoma
Protocol: as §1, §2

HT29 = assay: NCI60 growth inhibition, HT29; conditions: Colon Cancer
Protocol: as §1, §2

SW-620 = assay: NCI60 growth inhibition, SW-620; conditions: Colon Cancer; also: test concentration or dose not given here
Protocol: as §1, §2

UACC-257 = assay: NCI60 growth inhibition, UACC-257; conditions: Melanoma; also: test concentration or dose not given here
Protocol: as §1, §2

COLO 205 = assay: NCI60 growth inhibition, COLO 205; conditions: Colon Cancer
Protocol: as §1, §2

OVCAR-4 = assay: NCI60 growth inhibition, OVCAR-4; conditions: Ovarian Cancer; also: test concentration or dose not given here
Protocol: as §1, §2

MDA-MB-231/ATCC = assay: NCI60 growth inhibition, MDA-MB-231/ATCC; conditions: Breast Cancer
Protocol: as §1, §2

SF-268 = assay: NCI60 growth inhibition, SF-268; conditions: CNS Cancer; also: test concentration or dose not given here
Protocol: as §1, §2

SR = assay: NCI60 growth inhibition, SR; conditions: Leukemia
Protocol: as §1, §2

ACHN = assay: NCI60 growth inhibition, ACHN; conditions: Renal Cancer
Protocol: as §1, §2

MCF7 = assay: NCI60 growth inhibition, MCF7; conditions: Breast Cancer
Protocol: as §1, §2

HOP-92 = assay: NCI60 growth inhibition, HOP-92; conditions: Non-Small Cell Lung Cancer
Protocol: as §1, §2

Cc1ccc2c(n1)C(=O)C(Cl)=C(Nc1ccc(N3CCN(C)CC3)cc1)C2=O [Compound 13, 7-chloro-2-methyl-6-((4-(4-methylpiperazin-1-yl)phenyl)amino)quinoline-5,8-dione]
Growth inhibition (% control) GIPRCNT (SK-MEL-28): 30.32 % control | Growth inhibition (% control) GIPRCNT (OVCAR-3): −100 % control | Growth inhibition (% control) GIPRCNT (LOX IMVI): −95.4404 % control | Growth inhibition (% control) GIPRCNT (CCRF-CEM): −6.237 % control | Growth inhibition (% control) GIPRCNT (OVCAR-5): −7.548 % control | Growth inhibition (% control) GIPRCNT (DU-145): −18.6864 % control | Growth inhibition (% control) GIPRCNT (HCT-15): 70.44 % control | Growth inhibition (% control) GIPRCNT (SK-MEL-5): 10.39 % control | Growth inhibition (% control) GIPRCNT (PC-3): 68.66 % control | Growth inhibition (% control) GIPRCNT (MDA-MB-435): −99.1118 % control | Growth inhibition (% control) GIPRCNT (UACC-62): −49.3593 % control | Growth inhibition (% control) GIPRCNT (SK-MEL-2): 68.36 % control | Growth inhibition (% control) GIPRCNT (IGROV1): −83.5269 % control | Growth inhibition (% control) GIPRCNT (RXF 393): 62.78 % control | Growth inhibition (% control) GIPRCNT (MDA-MB-468): −84.6413 % control | Growth inhibition (% control) GIPRCNT (SNB-19): 94.6 % control | Growth inhibition (% control) GIPRCNT (RPMI-8226): −32.551 % control | Growth inhibition (% control) GIPRCNT (K-562): −12.2778 % control | Growth inhibition (% control) GIPRCNT (SF-539): −24.5048 % control | Growth inhibition (% control) GIPRCNT (CAKI-1): −100 % control | Growth inhibition (% control) GIPRCNT (HOP-62): 63.65 % control | Growth inhibition (% control) GIPRCNT (KM12): 92.08 % control | Growth inhibition (% control) GIPRCNT (SNB-75): −53.8363 % control | Growth inhibition (% control) GIPRCNT (HCT-116): −64.939 % control | Growth inhibition (% control) GIPRCNT (T-47D): −61.1209 % control | Growth inhibition (% control) GIPRCNT (A498): 100.8258 % control | Growth inhibition (% control) GIPRCNT (A549/ATCC): 97.64 % control | Growth inhibition (% control) GIPRCNT (EKVX): −81.7903 % control | Growth inhibition (% control) GIPRCNT (HCC-2998): 95.31 % control | Growth inhibition (% control) GIPRCNT (NCI-H460): 97.22 % control | Growth inhibition (% control) GIPRCNT (HS 578T): 58 % control | Growth inhibition (% control) GIPRCNT (786-0): 52.18 % control | Growth inhibition (% control) GIPRCNT (NCI-H23): 16.65 % control | Growth inhibition (% control) GIPRCNT (SF-295): 99.36 % control | Growth inhibition (% control) GIPRCNT (U251): 8.466 % control | Growth inhibition (% control) GIPRCNT (NCI-H226): 105.4813 % control | Growth inhibition (% control) GIPRCNT (HL-60(TB)): −46.6759 % control | Growth inhibition (% control) GIPRCNT (NCI-H522): −63.7561 % control | Growth inhibition (% control) GIPRCNT (NCI/ADR-RES): 27.61 % control | Growth inhibition (% control) GIPRCNT (MALME-3M): −75.4481 % control | Growth inhibition (% control) GIPRCNT (SN12C): −88.5465 % control | Growth inhibition (% control) GIPRCNT (NCI-H322M): 97.35 % control | Growth inhibition (% control) GIPRCNT (UO-31): −97.3532 % control | Growth inhibition (% control) GIPRCNT (SK-OV-3): 89.88 % control | Growth inhibition (% control) GIPRCNT (TK-10): 100.0838 % control | Growth inhibition (% control) GIPRCNT (MOLT-4): −25.588 % control | Growth inhibition (% control) GIPRCNT (M14): 73.83 % control | Growth inhibition (% control) GIPRCNT (HT29): 66.44 % control | Growth inhibition (% control) GIPRCNT (SW-620): −69.7878 % control | Growth inhibition (% control) GIPRCNT (UACC-257): 57.23 % control | Growth inhibition (% control) GIPRCNT (COLO 205): 82.4617 % control | Growth inhibition (% control) GIPRCNT (OVCAR-4): −100 % control | Growth inhibition (% control) GIPRCNT (MDA-MB-231/ATCC): −62.773 % control | Growth inhibition (% control) GIPRCNT (SF-268): 77.72 % control | Growth inhibition (% control) GIPRCNT (SR): −5.054 % control | Growth inhibition (% control) GIPRCNT (ACHN): −93.75 % control | Growth inhibition (% control) GIPRCNT (MCF7): −61.9194 % control | Growth inhibition (% control) GIPRCNT (HOP-92): −86.301 % control

Source: patent US20220162167A1, “SUBSTITUTED BICYCLIC AND TETRACYCLIC QUINONES AND USE THEREOF AS ANTI-CANCER AGENTS” (THE REGENTS OF THE UNIVERSITY OF MICHIGAN, priority 2019, published 2022)
